Test results as given in US20180243273A1, “Composition for Intravesical Administration for Treating Bladder Pain” (priority 2017, published 2018).

Legend:
Format in all cases: physicochemical
[1] = Stability after autoclaving; details: 121° C. and 2 bar for 20 min
Description: The stability of the pharmaceutical composition was assessed by means of autoclaving experiments, where the compositions were treated at 121° C. and 2 bar for 20 min.
Autoclaving experiments were performed with the aim to evaluate the stability of API in defined buffer systems and excipients. Clear glass covered by aluminium foil was chosen as primary packaging as it provided sufficient light protection for the material and was expected to provide a smaller risk of interaction than amber glass. The batches were autoclaved at 121° C. and 2 bar for 20 min, following analysis of impurity profiles.

[2] = Solubility and stability of API in dependence of surfactant concentration; details: phosphate buffer and 0.50% vitamin E TPGS, compared with other buffer/surfactant combinations at 0.25% and 0.5%
Description: In order to prevent too high concentrations of surfactants, which can cause irritant or toxic effects after local administration in the bladder, lower concentrations were evaluated. New batches of API in citrate and phosphate buffer were manufactured. SLS and vitamin E TPGS were chosen for citrate buffer and Labrasol® and vitamin E TPGS for phosphate buffer in a concentration of 0.5% and 0.25%, each. The compositions were stirred overnight prior to filtration and analysis.

[3] = Preliminary stability study of API intravesical solution
Description: Two dose strengths were specified: 40 μg/mL and 150 μg/mL API. These concentrations were defined in order to stay below 80% of the saturated solubility values obtained during previous experiments. To enable dissolution of the API, 0.5 wt.-% and 2 wt.-% vitamin E TPGS were used for 40 μg/mL and 150 μg/mL API, respectively (24 h stirring). The compositions were treated with nitrogen and stored at 5° C., 25° C. and 40° C.

[4] = vitamin E TPGS 0.5%, API 40 μg/mL, Asc. 1%, 6° C., 1 m
[5] = vitamin E TPGS 0.5%, API 40 μg/mL, Asc. 1%, 6° C., 2 w
[6] = vitamin E TPGS 0.5%, API 40 μg/mL, Asc. 1%, t = 0
[7] = vitamin E TPGS 0.5%, API 40 μg/mL, no Asc., treated with nitrogen, 6° C., 1 m
[8] = vitamin E TPGS 0.5%, API 40 μg/mL, no Asc., treated with nitrogen, 6° C., 2 w
[9] = vitamin E TPGS 0.5%, API 40 μg/mL, no Asc., treated with nitrogen, 6° C., 3 m
[10] = vitamin E TPGS 0.5%, API 40 μg/mL, no Asc., treated with nitrogen, 25° C., 1 m
[11] = vitamin E TPGS 0.5%, API 40 μg/mL, no Asc., treated with nitrogen, 25° C., 2 w
[12] = vitamin E TPGS 0.5%, API 40 μg/mL, no Asc., treated with nitrogen, 25° C., 3 m
[13] = vitamin E TPGS 0.5%, API 40 μg/mL, no Asc., treated with nitrogen, 40° C., 1 m
[14] = vitamin E TPGS 0.5%, API 40 μg/mL, no Asc., treated with nitrogen, 40° C., 2 w
[15] = vitamin E TPGS 0.5%, API 40 μg/mL, no Asc., treated with nitrogen, 40° C., 3 m
[16] = vitamin E TPGS 0.5%, API 40 μg/mL, no Asc., treated with nitrogen, t = 0
[17] = vitamin E TPGS 2%, API 150 μg/mL, Asc. 1%, 6° C., 1 m
[18] = vitamin E TPGS 2%, API 150 μg/mL, Asc. 1%, 6° C., 2 w
[19] = vitamin E TPGS 2%, API 150 μg/mL, Asc. 1%, t = 0
[20] = vitamin E TPGS 2%, API 150 μg/mL, no Asc., treated with nitrogen, 6° C., 1 m
[21] = vitamin E TPGS 2%, API 150 μg/mL, no Asc., treated with nitrogen, 6° C., 2 w
[22] = vitamin E TPGS 2%, API 150 μg/mL, no Asc., treated with nitrogen, 6° C., 3 m
[23] = vitamin E TPGS 2%, API 150 μg/mL, no Asc., treated with nitrogen, 25° C., 1 m

CN(C)[C@]1(c2cccc(F)c2)CC[C@]2(CC1)c1[nH]c3ccccc3c1CCN2C(=O)/C=C/c1ccccc1 [API, cis-(E)-4-(3-fluorophenyl)-2′,3′,4′,9′-tetrahydro-N,N-dimethyl-2′-(1-oxo-3-phenyl-2-propenyl)-spiro[cyclohexane-1,1′[1H]-pyrido[3,4-b]indol]-4-amine]
degradation of API after autoclaving ([1]; citrate buffer and SLS): highest degradation | degradation of API after autoclaving ([1]; phosphate buffer and vitamin E TPGS): lowest degradation | assay and impurities [2]: highest assay and lowest impurities values | assay values over storage ([3]; all investigated compositions, 3 months, stored at 6° C. or 25° C.): remained stable | assay over storage ([3]; stored at 40° C.): decreased considerably | Assay [3, 4]: 70.25 % L.S. | Impurities [3, 4]: 1.00 % (a/a) | Assay [3, 5]: 70.56 % L.S. | Impurities [3, 5]: 0.57 % (a/a) | Assay [3, 6]: 70.39 % L.S. | Impurities [3, 6]: 0.57 % (a/a) | Assay [3, 7]: 54.62 % L.S. | Impurities [3, 7]: 0.58 % (a/a) | Assay [3, 8]: 54.81 % L.S. | Impurities [3, 8]: 0.08 % (a/a) | Assay [3, 9]: 55.05 % L.S. | Impurities [3, 9]: 0.69 % (a/a) | Assay [3, 10]: 54.98 % L.S. | Impurities [3, 10]: 0.86 % (a/a) | Assay [3, 11]: 54.71 % L.S. | Impurities [3, 11]: 0.97 % (a/a) | Assay [3, 12]: 54.50 % L.S. | Impurities [3, 12]: 1.42 % (a/a) | Assay [3, 13]: 54.06 % L.S. | Impurities [3, 13]: 1.78 % (a/a) | Assay [3, 14]: 54.61 % L.S. | Impurities [3, 14]: 1.04 % (a/a) | Assay [3, 15]: 52.07 % L.S. | Impurities [3, 15]: 4.94 % (a/a) | Assay [3, 16]: 54.58 % L.S. | Impurities [3, 16]: 0.55 % (a/a) | Assay [3, 17]: 67.68 % L.S. | Impurities [3, 17]: 1.16 % (a/a) | Assay [3, 18]: 68.11 % L.S. | Impurities [3, 18]: 0.68 % (a/a) | Assay [3, 19]: 68.21 % L.S. | Impurities [3, 19]: 0.68 % (a/a) | Assay [3, 20]: 61.93 % L.S. | Impurities [3, 20]: 0.72 % (a/a) | Assay [3, 21]: 62.29 % L.S. | Impurities [3, 21]: 0.49 % (a/a) | Assay [3, 22]: 62.05 % L.S. | Impurities [3, 22]: 0.72 % (a/a) | Assay [3, 23]: 62.07 % L.S. | Impurities [3, 23]: 1.00 % (a/a) | Assay ([3]; vitamin E TPGS 2%, API 150 μg/mL, no Asc., treated with nitrogen, 25° C., 2 w): 61.97 % L.S.
